Laboratory results taken from patent US7792665B2, “Method for designing a compound based on the three dimensional structure of phosphoinositide dependent protein kinase 1 (PDK1)” (Medical Research Council, priority 2002, dated 2010).
Residue numbers refer to the chain shown, from its start. Entries after “also recorded” stand apart in the source; their conditions may differ. Where a SMILES comes first, the peptide text is derived from it. [ ]: non-standard residue; d: D form. pT = C[C@@H](OP(=O)(O)O)[C@H](N)C(=O)O

Experiments:
PDK1[T148A] [1] = target: T1, PDK1[T148A] (Homo sapiens, UniProt O15530, T148A); test: Surface plasmon resonance (BiaCore) binding, PDK1[T148A]; design: made in house; host or cells: human embryonic kidney 293 cells (pEBG2T vector)
T1 sequence (O15530 1-556 T148A): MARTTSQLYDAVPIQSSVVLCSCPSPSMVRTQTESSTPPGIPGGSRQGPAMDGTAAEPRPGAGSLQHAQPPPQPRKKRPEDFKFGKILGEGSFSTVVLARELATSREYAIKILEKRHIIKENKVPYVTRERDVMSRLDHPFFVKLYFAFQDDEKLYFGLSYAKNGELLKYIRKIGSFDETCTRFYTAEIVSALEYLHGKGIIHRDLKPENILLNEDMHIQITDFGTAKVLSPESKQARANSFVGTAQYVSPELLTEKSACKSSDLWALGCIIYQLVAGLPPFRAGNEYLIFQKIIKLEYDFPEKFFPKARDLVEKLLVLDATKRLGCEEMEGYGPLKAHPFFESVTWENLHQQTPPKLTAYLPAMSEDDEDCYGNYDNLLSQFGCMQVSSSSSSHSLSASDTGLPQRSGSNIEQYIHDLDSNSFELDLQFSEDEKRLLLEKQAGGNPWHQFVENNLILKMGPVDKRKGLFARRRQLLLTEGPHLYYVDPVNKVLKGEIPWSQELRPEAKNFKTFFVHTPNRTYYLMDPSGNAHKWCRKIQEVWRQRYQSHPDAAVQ
Method: (§1) Binding and activation of wild type and mutant forms of PDK1 to a phosphopeptide derived from the hydrophobic motif of S6K1. The binding of the wild type (wt) PDK1 and indicated mutants to a phosphopeptide comprising the hydrophobic motif of S6K1 (S6K-pHM: […]*YVAPSV, where T* indicates phospho-threonine, SEQ ID NO:104) was analysed by surface plasmon resonance as described in the Materials and Methods.
(§2) A. The sensor chip SA was coated with 12RUs of the biotinylated S6K-pHM peptide and the binding was analysed following injection of 270 nM wild type PDK1, PDK1 [T148A] and PDK1 [K76A]. […] (data not shown).
B. As in A. except that binding was analysed over a range of PDK1 concentrations (2-2150 nM). The response level at the steady state binding is plotted versus the log of the PDK1 concentration. The estimated Kd was obtained by fitting the data to a sigmoid curve using Kaleidagraph software.
Binding was analysed in a BiaCore 3000 system (BiaCore AB, Stevenage, UK). Biotinylated S6K-pHM (Biotin-C12-[…](P)YVAPSV) (SEQ ID NO:104) or the non-phosphorylated form of this peptide S6K-HM was bound to an streptavidin-coated Sensor chip (SA) (12 response units, RU). […] Steady state binding was determined at each concentration. Dissociation of PDK1 from the phospho-peptide was monitored over a 1 min period. […]

PDK1[R131A] [2] = target: T2, PDK1[R131A] (Homo sapiens, UniProt O15530, R131A); test: PDK1 catalytic activity towards T308tide, activation by peptides, PDK1[R131A]; format: biochemical
T2 construct: GST (N); made in house; host or cells: human embryonic kidney 293 cells (pEBG2T vector)
T2 sequence (O15530 1-556 R131A): T1 sequence (O15530 1-556 T148A) with R131A, A148T
Method: (§3) C. Activation of the indicated forms of PDK1 by 56K-pHM and S6K-HM. PDK1 activity was measured using the peptide substrate (T308tide) in the presence of the indicated concentrations of 56K-pHM (closed circles) and S6K-HM (open circles) as described in the methods. Assays were performed in triplicate and similar results obtained in 2 separate experiments. The results are the average—SD for a single experiment.
(§4) The ability of wild type and mutant PDK1 to phosphorylate the synthetic peptide T308tide ([…] ([Biondi et al., 2000]) (SEQ ID NO:108) was carried out in 30 μl assays containing 100 ng of wild type or mutant PDK1, 50 mM Tris/HCl pH 7.5, 0.1% 13-mercaptoethanol, 10 mM MgCl2, 100 μM [32γ P]ATP (200 cpm/pmol), 0.5 μM microcystin-LR, 1 mM T308tide in the presence or absence of the indicated concentrations of the 56K-pHM peptide ([…](P)YVAPSV) (SEQ ID NO:104) or 56K-HM. peptide ([…]) (SEQ ID NO:105). After incubation for 10 min at 30° C., 25 μl of the resultant mixture was spotted into P81 phosphocellulose paper (2×2 cm) and the papers washed and analysed as described previously for assays of MAP kinase. Control assays were carried out in parallel in which either PDK1, or peptide substrate were omitted; these values were always less than 5% of the activity measured in the presence of these reagents. One Unit of PDK1 activity was defined as that amount required to catalyse the phosphorylation of 1 nmol of the T308tide in 1 min.

PDK1[T148A] [3] = target: T1, PDK1[T148A]; test: PDK1 catalytic activity towards T308tide, activation by peptides, PDK1[T148A]; format: biochemical; design: made in house; conditions: T308tide substrate
Method: as §3
as §4, with “One Unit of PDK1 activity was defined as that amount required to catalyse the phosphorylation of 1 nmol of the T308tide in 1 min.” left out

PDK1[R131A] [4] = target: T2, PDK1[R131A]; test: Surface plasmon resonance (BiaCore) binding, PDK1[R131A]
Method: as §1, §2
Binding was analysed in a BiaCore 3000 system (BiaCore AB, Stevenage, UK). Biotinylated S6K-pHM (Biotin-C12-[…](P)YVAPSV) (SEQ ID NO:104) or the non-phosphorylated form of this peptide S6K-HM was bound to an streptavidin-coated Sensor chip (SA) (12 response units, RU). 30 μl of wild type or the indicated mutant GST-PDK1 were injected at a flow rate of 30 μl/min, in buffer HBS-P (10 mM HEPES pH 7.4, 0.15M NaCl, 0.005% (by vol) polysorbate-20) supplemented with 1 mM DTT. Specific interactions between 56K-pHM and PDK1 proteins were obtained between the concentration range of 2-2150 nM PDK1. Steady state binding was determined at each concentration. Dissociation of PDK1 from the phospho-peptide was monitored over a 1 min period. […]

Q: Which results are given for `CC(C)C[C@H](NC(=O)[C@H](Cc1ccccc1)NC(=O)[C@@H](NC(=O)[C@H](CCC(N)=O)NC(=O)[C@H](CC(N)=O)NC(=O)[C@H](C)NC(=O)[C@H](CO)NC(=O)[C@H](CCC(=O)O)NC(=O)[C@@H](N)CO)C(C)C)C(=O)NCC(=O)N[C@@H](Cc1ccccc1)C(=O)N[C@H](C(=O)N[C@@H](Cc1ccc(O)cc1)C(=O)N[C@H](C(=O)N[C@@H](C)C(=O)N1CCC[C@H]1C(=O)N[C@@H](CO)C(=O)N[C@H](C(=O)O)C(C)C)C(C)C)[C@@H](C)OP(=O)(O)O` [S6K-pHM] (H-SESANQVFLGF[pT]YVAPSV-OH; N-terminus and C-terminus assumed)?
A: dissociation of PDK1[T148A] from peptide compared with wild type PDK1 or PDK1[K76A] (PDK1[T148A] [1]; BiaCore, 270 nM PDK1): markedly slower; higher affinity of PDK1[T148A] than wild type PDK1 (PDK1[T148A] [1]; relative to wild type PDK1): about 10 fold; activation of PDK1[R131A] (PDK1[R131A] [2]; peptide 0.3 and 1 mM): only moderately further increased; activation of PDK1[R131A] (PDK1[R131A] [2]; peptide below 0.1 mM): not significantly activated; activation of PDK1[T148A] (PDK1[T148A] [3]): activated similarly as wild type PDK1; binding of PDK1[R131A] to peptide (PDK1[R131A] [4]): No detectable binding; also recorded: did not detectably interact
